The target in assay [1] is T1, recombinant human B1 receptors (Homo sapiens, UniProt P46663).
T1 construct: host or cells: CHO (CHO-B1)
T1 sequence (P46663 1-353): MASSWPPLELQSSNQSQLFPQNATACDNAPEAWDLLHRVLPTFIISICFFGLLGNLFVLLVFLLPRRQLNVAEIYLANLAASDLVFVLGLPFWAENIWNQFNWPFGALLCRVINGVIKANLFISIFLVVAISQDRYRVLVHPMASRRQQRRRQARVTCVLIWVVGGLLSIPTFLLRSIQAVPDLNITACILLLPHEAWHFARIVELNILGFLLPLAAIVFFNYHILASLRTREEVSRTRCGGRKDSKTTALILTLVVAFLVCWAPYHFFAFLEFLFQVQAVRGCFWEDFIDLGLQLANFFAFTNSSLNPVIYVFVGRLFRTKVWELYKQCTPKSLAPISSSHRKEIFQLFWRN
Briefly: Antagonist potency by measurement of cytosolic calcium ion concentration in CHO-B1 cells (agonist LysDABK). Format: cell-based. To be noted: inhibition of LysDABK (EC80)-evoked [Ca2+]i elevation, fluo-4, read-out: B1 func. On the procedure: Assessment of Antagonist Potency at B1 and B2 Receptors In Vitro by Measurement of Cytosolic Calcium Ion Concentration with a Plate Reader Fluorimeter in Cells Expressing Recombinant Human B1 or B2 Receptors
Chinese hamster ovary (CHO) cells stably expressing recombinant human B1 (CHO-B1, Euroscreen) or B2 (CHO-B2, Perkin-Elmer) receptors were cultured in Dulbecco's Modified Eagle's Medium (DMEM) containing 10% Fetal Calf Serum (FCS), 100 U/ml penicillin, 0.1 mg/ml streptomycin, 0.25 μg/ml amphotericin B, 1% Minimum Essential Medium Eagle (MEM), non essential amino acid solution, 600 μg/ml G418, 1% pyruvate (for the B2 cell line). Cells were kept at 37° C. in a humidified incubator in an atmosphere of 5% CO2/95% air and were passaged 1:4 three times a week. Cells were plated at 1.5-2.5×10^4 cell/well on standard 96-well microplates, measurements of cytosolic calcium ion concentration ([Ca^2+]i) were carried out 1-2 days after cell plating.
Measurements of [Ca^2+]i were carried out on CHO-B1 and CHO-B2 cells stably expressing human B1 and B2 receptors, respectively. Cells were grown in standard 96-well microplates and before the measurement were loaded with a fluorescent Ca^2+-sensitive dye, fluo-4/AM (2 μM): after removing the culture medium the dye was added to the cells (dissolved in assay buffer: 145 mM NaCl, 5 mM KCl, 2 mM MgCl2, 2 mM CaCl2, 10 mM HEPES, 20 mM D-glucose, 2 mM probenecid, 100 μl/well) and cells were incubated at 37° C. in a humidified incubator in an atmosphere of 5% CO2/95% air for 40-120 min. To stop dye loading cells were washed twice with assay buffer. After washing, various concentrations of the test compounds (diluted in extracellular medium from a DMSO stock solution, final DMSO concentration was <0.1%) or buffer were added to each well depending on the experimental setup. After incubation at 37° C. for 20-25 min. baseline and agonist-evoked changes of [Ca^2+]i were measured column by column with a plate reader fluorimeter (Fluoroskan Ascent, Labsystems). Excitation and detection of emission was carried out from the bottom of the plate. Filters used for Fluo-4: excitation filter −485 nm, emission filter −538 nm. The whole measurement process was performed at 37° C. and was controlled by custom software. Inhibitory potency of the test compounds was assessed by measuring the reduction in the agonist-evoked [Ca^2+]i-elevation in the presence of different concentrations of the compounds. The agonists were LysDABK for CHO-B1, and bradykinin for CHO-B2 cells. Agonists were applied at an EC80 concentration, the EC80-values were derived from daily determined dose-response curves. Fluorescence data were expressed as ΔF/F (fluorescence change normalized to baseline). All treatments on a single plate were measured in multiple wells. Data from all wells with the same treatment were averaged and the average values were used for analysis. Inhibitory potency of a compound at a single concentration point was expressed as percent inhibition of the control agonist response. Sigmoidal concentration-inhibition curves were fitted to the data (derived from at least three independent experiments) and IC50-values were determined as the concentration that produces half of the maximal inhibition caused by the compound.

Assay [2] addresses T2, human recombinant bradykinin1 receptors (Homo sapiens, UniProt P46663).
T2 construct: host or cells: CHO cells
T2 sequence (P46663 1-353): T1 sequence (P46663 1-353)
Briefly: Human recombinant bradykinin B1 receptor binding. To be noted: CHO cell membranes, [3H]-[Des-Arg10] Kallidin radioligand. On the procedure:
Receptor Binding Assays 1. Human Recombinant Bradykinin B1 Receptor Binding
Binding assays were carried out on human recombinant bradykinin1 receptors (expressed in CHO cells) according to the Euroscreen Technical Data Sheet (Cat. No.: ES-091). 20 μg protein/tube was incubated with [3,4-prolyl-3,4-^3H(N)]-[Des-Arg^10] Kallidin as radioligand. Non specific binding was determined in the presence of 10 μM Lys-des-Arg^9-Bradykinin. The final incubation volume was 250 μl. Samples were incubated for 15 min. at 25° C. then were rapidly vacuum filtered through GF/B filters presoaked for at least 1 h in 0.5% PEI. Radioactivity was determined by liquid scintillation spectroscopy.

As a reminder, the Ki is the equilibrium dissociation constant of an inhibitor or competing ligand from its target.

Consider `N=C(N)c1ccc(CCNC(=O)CC2c3ccccc3-c3ccccc3N2S(=O)(=O)c2ccc(Cl)c(Cl)c2)cc1` (centres unmarked) [Example 20, N-[2-(4-Carbamimidoyl-phenyl)-ethyl]-2-[5-(3,4-dichloro-benzenesulfonyl)-5,6-dihydro-phenanthridin-6-yl]-acetamide], for which, in assay [1], the IC50 is below 100 nM. Further, the Ki in assay [2] is below 100 nM.

On to `COc1cccc2c1-c1ccccc1N(S(=O)(=O)c1ccc(Cl)c(Cl)c1)C2CC(=O)N[C@H]1CC[C@H](CCN2CCCC2)CC1` (stereo partly drawn) [Example 21, trans-2-[5-(3,4-Dichloro-benzenesulfonyl)-10-methoxy-5,6-dihydro-phenanthridine-6-yl]-N-[4-(2-pyrrolidin-1-ylethyl)-cyclohexyl]-acetamide], for which the IC50 in assay [1] was below 100 nM. In addition, the inhibitory constant (Ki) in assay [2] was below 100 nM.

As to `CC(C)N1CCN(C(=O)C2CCN(S(=O)(=O)c3ccc(NCC(c4ccccc4)c4ccccc4)c(C(=O)N4CCOCC4)c3)CC2)CC1` [Example 70002460, 4-{2-[(2,2-diphenyl-ethyl)-amino]-5-{[4-/(4-<1-methyl-ethyl>-1-piperazinyl)-carbonyl/-1-piperidinyl]-sulfonyl}-benzoyl}-morpholine, reference compound], the IC50 in assay [1] was in the range of 100 to 500 nM. Moreover, in assay [2], the Ki was below 100 nM.

As to `O=C(C[C@@H]1C(=O)Nc2ccccc2N1S(=O)(=O)c1ccc(Cl)c(Cl)c1)NCCc1ccc(C2=NCCN2)cc1` [Example 70004287, 2-[1-(3,4-dichloro-benzenesulfonyl)-3-oxo-1,2,3,4-tetrahydroquinoxalin-2(R)-yl]-N-{2-[4-(4,5-dihydro-1H-imidazol-2-yl)-phenyl]-ethyl}-acetamide, reference compound], the IC50 in assay [1] was below 100 nM. Also, the Ki in assay [2] is below 100 nM.

For the origin of these results see patent publication US8034827B2, “Phenanthridine derivatives as bradykinin antagonists” (Richter Gegeon Nyrt., priority 2005, dated 2011).
